Here are results for two compounds from paper PMC10861534, “Poly-γ-glutamylation of biomolecules” (Nature Communications, 2024).

The target in experiment [1] is T1, Mtb-FPGS (Mycobacterium tuberculosis, UniProt I6Y0R5).
T1 construct: gene folC

For experiment [2], the target named is T2, Af-CofE (Archaeoglobus fulgidus, UniProt O28028).
T2 construct: codon-optimized ORF in pProEX-HTb, E. coli BL21(DE3) LOBSTR; N-terminal His6-tag removed by rTEV; co-purified flavins washed off with urea/KBr; homodimer
Briefly: LC-MS of reaction products. The note with it: 2 mM analogue, 50 uM F420-1, 2 mM GTP, 2 mM MgCl2/MnCl2, pH 8.5, 37 °C; chain terminator. Format: biochemical.

The target of experiment [3] is Mtb-FbiB (Mycobacterium tuberculosis, UniProt P9WP79).
The target in experiment [4] is T3, hFPGS (Homo sapiens, UniProt Q05932).
T3 construct: gene FPGS; ORF in pFastBacHTa, N-terminal His6-tag, Sf9 insect cells
T3 sequence (Q05932 43-587): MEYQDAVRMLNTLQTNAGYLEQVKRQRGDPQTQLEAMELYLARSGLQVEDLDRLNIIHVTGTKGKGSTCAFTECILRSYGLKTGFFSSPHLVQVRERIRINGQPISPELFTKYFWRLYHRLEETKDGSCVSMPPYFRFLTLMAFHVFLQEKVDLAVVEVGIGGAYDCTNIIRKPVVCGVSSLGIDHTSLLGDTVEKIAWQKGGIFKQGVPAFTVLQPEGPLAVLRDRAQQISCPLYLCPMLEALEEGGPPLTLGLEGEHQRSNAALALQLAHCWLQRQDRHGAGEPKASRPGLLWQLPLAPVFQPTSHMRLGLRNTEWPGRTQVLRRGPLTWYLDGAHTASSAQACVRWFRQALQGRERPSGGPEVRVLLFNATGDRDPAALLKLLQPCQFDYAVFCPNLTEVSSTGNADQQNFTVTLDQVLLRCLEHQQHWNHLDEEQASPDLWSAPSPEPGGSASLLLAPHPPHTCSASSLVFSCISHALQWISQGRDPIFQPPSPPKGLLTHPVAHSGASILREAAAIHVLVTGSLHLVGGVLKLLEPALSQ
Briefly: LC-MS of reaction products. As to conditions: 5 mM analogue, 0.5 mM folate, 5 mM ATP, 10 mM MgCl2, pH 8.5, 37 °C; chain terminator. Format: biochemical.

Experiment [5] has as its target T4, Tm-DHFR (Thermotoga maritima, UniProt Q60034).
T4 construct: gene folA; synthesized ORF in pProEX-HTb, E. coli BL21(DE3) LOBSTR; TALON and SEC
T4 sequence (Q60034 1-169): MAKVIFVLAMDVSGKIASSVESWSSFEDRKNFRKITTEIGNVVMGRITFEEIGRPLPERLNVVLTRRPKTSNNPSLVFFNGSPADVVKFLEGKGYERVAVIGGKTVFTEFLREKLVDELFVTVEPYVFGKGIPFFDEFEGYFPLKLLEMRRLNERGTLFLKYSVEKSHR
As to the kind of experiment: 1H NMR of reaction. It counts as biochemical. The note with it: 1 mM folate-2, 2 mM NADPH, pH 7.0, 37 °C; reduced to tetrahydrofolate-2.

T1 sequence (I6Y0R5 whole entry): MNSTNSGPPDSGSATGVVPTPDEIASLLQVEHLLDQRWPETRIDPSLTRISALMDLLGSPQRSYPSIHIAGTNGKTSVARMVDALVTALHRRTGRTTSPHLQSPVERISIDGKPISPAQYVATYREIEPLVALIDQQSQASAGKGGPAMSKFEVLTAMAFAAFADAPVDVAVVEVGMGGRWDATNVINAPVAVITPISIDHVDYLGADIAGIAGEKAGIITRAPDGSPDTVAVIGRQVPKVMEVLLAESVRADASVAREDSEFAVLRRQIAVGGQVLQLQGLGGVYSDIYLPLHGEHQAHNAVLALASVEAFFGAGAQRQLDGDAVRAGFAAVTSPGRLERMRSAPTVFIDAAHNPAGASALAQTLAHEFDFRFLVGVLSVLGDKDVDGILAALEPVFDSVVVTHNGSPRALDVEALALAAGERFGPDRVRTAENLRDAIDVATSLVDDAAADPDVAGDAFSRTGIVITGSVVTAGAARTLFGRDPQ
T2 sequence (O28028 whole entry): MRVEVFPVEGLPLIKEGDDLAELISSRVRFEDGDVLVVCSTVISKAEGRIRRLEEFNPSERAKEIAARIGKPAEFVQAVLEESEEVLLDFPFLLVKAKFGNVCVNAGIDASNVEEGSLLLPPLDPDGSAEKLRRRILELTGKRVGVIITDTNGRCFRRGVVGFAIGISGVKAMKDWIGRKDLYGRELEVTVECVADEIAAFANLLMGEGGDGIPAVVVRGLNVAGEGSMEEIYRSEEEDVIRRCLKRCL
Chain of Mtb-FbiB (P9WP79 whole entry): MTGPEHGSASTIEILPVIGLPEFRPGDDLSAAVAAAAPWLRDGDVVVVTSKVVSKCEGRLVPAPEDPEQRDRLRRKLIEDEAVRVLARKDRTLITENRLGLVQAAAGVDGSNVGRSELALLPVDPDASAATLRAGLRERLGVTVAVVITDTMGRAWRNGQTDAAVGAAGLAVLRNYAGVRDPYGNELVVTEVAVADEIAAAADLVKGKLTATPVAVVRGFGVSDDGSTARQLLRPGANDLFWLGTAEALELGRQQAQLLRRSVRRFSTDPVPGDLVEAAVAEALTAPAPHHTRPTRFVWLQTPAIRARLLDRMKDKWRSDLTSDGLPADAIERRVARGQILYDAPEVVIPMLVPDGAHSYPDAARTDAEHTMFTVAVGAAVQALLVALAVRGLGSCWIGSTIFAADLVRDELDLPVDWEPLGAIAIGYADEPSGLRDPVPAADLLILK

Take `N[C@@H](CC[N+](=O)[O-])C(=O)O` [4-nitro-L-2-aminobutyric acid, (2S)-2-Amino-4-nitrobutanoic acid]: the “LC-MS of reaction products” value is “acts as a substrate across all enzymes and both cofactors” in experiment [1]; “acts as a substrate across all enzymes and both cofactors” in experiment [2]; “acts as a substrate across all enzymes and both cofactors” in experiment [3]; “acts as a substrate across all enzymes and both cofactors” in experiment [4].
For `Nc1nc2ncc(CNc3ccc(C(=O)N[C@@H](CCC(=O)N[C@@H](CCC(=O)O)C(=O)O)C(=O)O)cc3)nc2c(=O)[nH]1` [folate-2, pteroyldi-γ-L-glutamic acid], in experiment [1], the “LC-MS of reaction products” value is listed as “addition of only a single L-glutamate molecule to afford folate-3 as the major product”. For the same compound, in experiment [5], the “1H NMR of reaction” value is reported as “pre-incubation with Tm-DHFR initiated the production of tetrahydrofolate-2”.
